Test results taken from patent publication US20240041773A1, “POWDER MIXING DEVICE, AND USES THEREOF” (University of Connecticut, priority 2022, published 2024).

Experiments:
[1] = Powder adhesion to blender wall (initial powder weight minus powder recovered); type: physicochemical
Description: Reference will now be to FIGS. 17A, 17B and 18. To investigate the impact of using the surface of the blender on powder adhesion to the blender material, the total powder adhesion was calculated by subtracting the amount of powder recovered and initial powder weight. […] This may be the result of significant adhesive forces between the blender wall and ibuprofen particles. The blender wall has an opposite charge as compared to ibuprofen particles therefore powder particles becomes attracted to the blender wall and deposit there due to image forces. Additionally, bipolar charging may occur due to this high level of powder adhesion which could further decrease the number of particle-blender wall collisions, further changing the powder charging dynamics.

[2] = Tribocharging of ibuprofen powder in V blenders, specific charge measured by Faraday cup; type: physicochemical
Description: Ibuprofen was chosen as the model blending powder 140 due to its ability to charge excessively and was evaluated in all the V blenders 110. The V blender materials were procured from McMaster-Carr (https://www.mcmaster.com/) and was fabricated at the University of Connecticut (https://uconn.edu/). Ibuprofen powder 140 was spread into thin layers onto aluminum foil and equilibrated overnight at 16% RH along with the V blender 110 before the blending experiments. Before starting the experiment, initial charge was measured using Faraday cup 200. The blender 110 was charged with the powder 140 and blended in all the blenders for different time intervals. After completion of the tribocharging experiment powder was collected in the Faraday cup 200 connected to a nano-coulombmeter to measure the charge, which was reported as charge to mass ratio, also known as specific charge (nC/g) (FIG. 9). All experiments were done in triplicate at room temperature and at 16% RH. Similar experiments were also performed using ibuprofen—excipient blends to understand equipment capability to mitigate electrostatic charging in other powders. For this study, Ibuprofen—Sugar sphere (500/600 μm) blends were evaluated using stainless steel (SS), stainless steel-PVC (SS-PVC), and PVC blenders. Sugar spheres is widely used excipient for sustained-release pellet formulations used in oral dosage forms therefore, selected for this study.
With reference to FIGS. 10-16, to study triboelectrification, a measured quantity 50 g of ibuprofen was loaded into the V blender 110 which were rotated at 13 rpm for different time intervals. The experiments were performed for different time intervals such as 2, 10, 20, 30, and 40 mins (respectively graphed as bars A-E in FIGS. 10-14) at 13 rpm and 16% relative humidity. […] Final charge with Al-PVC blender 110 of FIG. 6 as shown with the different graphed bars 12A-12E of the bar graph of FIG. 12 was negative in polarity, e.g., due to more interaction of ibuprofen with Aluminum. It can be observed after comparing specific charge from three blenders 110, the Al-PVC blender 110 of FIG. 6 can reduce charge (FIGS. 10-12).
Additionally, the graphs of these FIGS. are showing the charge in nC/g which might appear small but industrial manufacturing involves large scale handling of powders which leads to huge electrostatic charging.

powder adhesion to the blender walls ([1]; dual-material blenders (Al-PVC, SS-PVC)): decrease in the powder adhesion
powder adhesion to the blender walls ([1]; metal or insulator (single-material) blenders): significant adhesion
charge accumulated compared with the PVC and Al blenders ([2]; Al-PVC blender, 13 rpm, 16% RH): significantly less
polarity of final charge ([2]; Al-PVC blender, 50 g, 13 rpm, 16% RH): negative
polarity of charge acquired ([2]; Aluminum blender, 50 g, 13 rpm, 2-40 mins, 16% RH): negatively
polarity of charge acquired ([2]; PVC blender, 50 g, 13 rpm, 2-40 mins, 16% RH): positively
polarity of charge acquired ([2]; PVC blender, 50 g, 13 rpm, 2-40 mins, 16% RH, listed as ibuprofen): positive charge
time of charge saturation ([2]; blending at 13 rpm, 16% RH): 30 min
polarity of charge acquired ([2]; stainless steel and PVC blender (SS-PVC)): negative charge
polarity of charge acquired ([2]; stainless steel blender (cGMP material)): negative charge
Structure (SMILES): CC(C)Cc1ccc(C(C)C(=O)O)cc1 (stereo not shown) [Ibuprofen]
